T/C data for 18 molecules are collected here from PubChem BioAssay AID248 (DTP/NCI, 2004).

This test has as its system L1210 leukemia ip in BDF1 mice, survival T/C. Description: NCI In Vivo Anticancer Drug Screen. Data for tumor model L1210 Leukemia (intraperitoneal) in B6D2F1 (BDF1) mice. Conditions: endpoint: mean survival time, higher = longer survival. The method in brief:
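Antitumor effect is assessed in tumor-bearing animals. Survival in the compound arm is compared with a vehicle-dosed control arm and expressed as their quotient.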

The mark [1] stands for this setting: dose: 50.0 mg/kg/injection, schedule: Q01DX009 (ip), vehicle: saline with Tween-80.
[2] abbreviates: dose: 100.0 mg/kg/injection, schedule: Q01DX009 (ip), vehicle: saline with Tween-80.
The mark [3] stands for this setting: dose: 200.0 mg/kg/injection, schedule: Q01DX009 (ip), vehicle: saline with Tween-80.
Setting [4] is: dose: 200.0 mg/kg/injection, schedule: Q04DX003 (ip), vehicle: saline.
The mark [5] stands for this setting: dose: 50.0 mg/kg/injection, schedule: Q01DX001 (ip), vehicle: Klucel (hydroxypropylcellulose) (HPC).
[6] abbreviates: dose: 100.0 mg/kg/injection, schedule: Q01DX001 (ip), vehicle: Klucel (hydroxypropylcellulose) (HPC).
The mark [7] stands for this setting: dose: 200.0 mg/kg/injection, schedule: Q01DX001 (ip), vehicle: Klucel (hydroxypropylcellulose) (HPC).
The mark [8] stands for this setting: dose: 100.0 mg/kg/injection, schedule: Q01DX009 (ip), vehicle: saline.
The mark [9] stands for this setting: dose: 100.0 mg/kg/injection, schedule: Q01DX001 (ip), vehicle: carboxymethylcellulose (CMC).
[10] abbreviates: dose: 200.0 mg/kg/injection, schedule: Q01DX001 (ip), vehicle: carboxymethylcellulose (CMC).
Where [11] appears, read: dose: 400.0 mg/kg/injection, schedule: Q01DX001 (ip), vehicle: carboxymethylcellulose (CMC).
[12] abbreviates: dose: 400.0 mg/kg/injection, schedule: Q04DX003 (ip), vehicle: saline with Tween-80.

Where “and” joins values, the source holds several entries; their conditions need not be identical. Identical values can stand only once. Inconclusive results and toxic doses are left out.

On to `O=CNc1ccccc1.[Hg]`, for which the T/C by setting is: (dose: 1.56 mg/kg/injection, schedule: Q04DX003 (ip), vehicle: saline with Tween-80) 93 % of control; (dose: 3.13 mg/kg/injection, schedule: Q04DX003 (ip), vehicle: saline with Tween-80) 92 % of control; (dose: 6.25 mg/kg/injection, schedule: Q04DX003 (ip), vehicle: saline with Tween-80) 95 % of control and 112 % of control.

With `c1ccc2[nH]c(N3CCOCC3)nc2c1`, the T/C was 100 % of control under setting [1]; 107 % of control under setting [2]; 96 % of control (dose: 100.0 mg/kg/injection, schedule: Q04DX003 (ip), vehicle: saline); 96 % of control under setting [3]; 97 % of control under setting [4]; 103 % of control (dose: 400.0 mg/kg/injection, schedule: Q04DX003 (ip), vehicle: saline).

As for `O=C(O)C1CC1C(=O)c1ccccc1` (centres undefined), the T/C reads like this: (dose: 25.0 mg/kg/injection, schedule: Q01DX001 (ip), vehicle: Klucel (hydroxypropylcellulose) (HPC)) 98 % of control; under setting [5], 97 % of control; under setting [6], 96 % of control and 98 % of control; under setting [7], 86 % of control; (dose: 400.0 mg/kg/injection, schedule: Q01DX001 (ip), vehicle: Klucel (hydroxypropylcellulose) (HPC)) 103 % of control.

As for `CC(=O)Nc1ccc(NC(=O)C2C3C=CC(C3)C2C(=O)O)cc1` (centres undefined), the T/C is, setting by setting: under setting [1], 101 % of control; under setting [2], 107 % of control; under setting [3], 93 % of control.

For the molecule `CCCCC(C=NCC(CCCC)(CCN1CCOCC1)c1cccc2ccccc12)(CCN1CCOCC1)c1cccc2ccccc12` (centres undefined), the T/C is, setting by setting: under setting [8], 100 % of control; (dose: 200.0 mg/kg/injection, schedule: Q01DX009 (ip), vehicle: saline) 96 % of control; (dose: 400.0 mg/kg/injection, schedule: Q01DX009 (ip), vehicle: saline) 88 % of control.

Turning to `COc1cccc2c1C(=O)c1c(O)c3c(c(O)c1C2=O)C[C@@](O)(/C(C)=N/NS(C)(=O)=O)C[C@@H]3OC1CC(N)C(O)C(C)O1` (some centres undefined), the T/C (dose: 0.25 mg/kg/injection, schedule: Q04DX003 (ip), vehicle: water) was 103 % of control; the T/C (dose: 0.5 mg/kg/injection, schedule: Q04DX003 (ip), vehicle: water) is 103 % of control; the T/C (dose: 1.0 mg/kg/injection, schedule: Q04DX003 (ip), vehicle: water) is 103 % of control; the T/C (dose: 2.0 mg/kg/injection, schedule: Q04DX003 (ip), vehicle: water) was 105 % of control; the T/C (dose: 4.0 mg/kg/injection, schedule: Q01DX009 (ip), vehicle: water) is 105 % of control; the T/C (dose: 4.0 mg/kg/injection, schedule: Q04DX003 (ip), vehicle: water) is 107 % of control. Further, the T/C (dose: 8.0 mg/kg/injection, schedule: Q01DX009 (ip), vehicle: water) is 113 % of control; the T/C (dose: 8.0 mg/kg/injection, schedule: Q04DX003 (ip), vehicle: water) was 101 % of control and 113 % of control; the T/C (dose: 16.0 mg/kg/injection, schedule: Q01DX009 (ip), vehicle: water) is 121 % of control; the T/C (dose: 16.0 mg/kg/injection, schedule: Q04DX003 (ip), vehicle: water) was 104 % of control and 115 % of control; the T/C (dose: 64.0 mg/kg/injection, schedule: Q01DX009 (ip), vehicle: water) was 97 % of control.

Regarding `Cc1ccc(S(=O)(=O)N(CCCc2c(C)[nH]c(=S)[nH]c2=O)c2ccccc2)cc1`, the T/C is, setting by setting: (dose: 50.0 mg/kg/injection, schedule: Q04DX002 (ip), vehicle: Klucel (hydroxypropylcellulose) (HPC)) 91 % of control; (dose: 100.0 mg/kg/injection, schedule: Q04DX002 (ip), vehicle: Klucel (hydroxypropylcellulose) (HPC)) 100 % of control and 91 % of control; (dose: 200.0 mg/kg/injection, schedule: Q04DX002 (ip), vehicle: Klucel (hydroxypropylcellulose) (HPC)) 100 % of control and 91 % of control; (dose: 400.0 mg/kg/injection, schedule: Q04DX002 (ip), vehicle: Klucel (hydroxypropylcellulose) (HPC)) 100 % of control.

Regarding `COC(=O)c1cc(C)cc(N(c2ccccc2[N+](=O)[O-])S(=O)(=O)c2ccc(C)cc2)c1C`, the T/C is 96 % of control under setting [9], 104 % of control under setting [10] and 98 % of control under setting [11].

As to `CSC(=S)NN`, the T/C reads like this: (dose: 2.0 mg/kg/injection, schedule: Q04DX002 (ip), vehicle: saline) 113 % of control; (dose: 4.0 mg/kg/injection, schedule: Q04DX002 (ip), vehicle: saline) 110 % of control; (dose: 8.0 mg/kg/injection, schedule: Q04DX002 (ip), vehicle: saline) 94 % of control and 108 % of control.

As to `O=C1CCC=Cc2c(O)ccc(O)c21`, the T/C reads like this: under setting [9], 91 % of control; under setting [10], 93 % of control; under setting [11], 96 % of control.

For `C/C(=N\N=C(/C)c1ccc(O)cc1)c1ccc(O)cc1`, the T/C is, setting by setting: under setting [1], 96 % of control; under setting [2], 92 % of control; under setting [3], 89 % of control.

For `O=c1[nH]c(Cc2ccc([N+](=O)[O-])cc2)c(Br)c(=O)[nH]1`, the T/C under setting [5] is 103 % of control, the T/C under setting [6] was 92 % of control and the T/C under setting [7] is 92 % of control.

`Cc1c(CCC(C)C)oc2cc3oc(CCC(C)C)c(C)c3cc12`: the T/C is, setting by setting: (dose: 75.0 mg/kg/injection, schedule: Q01DX001 (ip), vehicle: carboxymethylcellulose (CMC)) 96 % of control; (dose: 150.0 mg/kg/injection, schedule: Q01DX001 (ip), vehicle: carboxymethylcellulose (CMC)) 90 % of control; (dose: 300.0 mg/kg/injection, schedule: Q01DX001 (ip), vehicle: carboxymethylcellulose (CMC)) 90 % of control.

`Cc1ccccc1NC(=O)NCCBr`: the T/C under setting [1] was 95 % of control and the T/C under setting [2] is 95 % of control.

`CCCCNC(C)(C)C(SS)c1ccco1` (centres undefined): the T/C (dose: 12.5 mg/kg/injection, schedule: Q04DX003 (ip), vehicle: alcohol) is 104 % of control; the T/C (dose: 25.0 mg/kg/injection, schedule: Q01DX009 (ip), vehicle: saline) is 97 % of control; the T/C (dose: 25.0 mg/kg/injection, schedule: Q04DX003 (ip), vehicle: alcohol) is 101 % of control; the T/C (dose: 50.0 mg/kg/injection, schedule: Q01DX009 (ip), vehicle: saline) was 92 % of control; the T/C (dose: 50.0 mg/kg/injection, schedule: Q04DX003 (ip), vehicle: alcohol) was 96 % of control; the T/C under setting [8] is 98 % of control. In addition, the T/C was 101 % of control (dose: 100.0 mg/kg/injection, schedule: Q04DX003 (ip), vehicle: alcohol); 92 % of control (dose: 150.0 mg/kg/injection, schedule: Q01DX009 (ip), vehicle: saline with Tween-80); 104 % of control (dose: 200.0 mg/kg/injection, schedule: Q04DX003 (ip), vehicle: alcohol).

Take `O=C(O)CC1CC=CCC1CC(=O)O` (centres undefined): the T/C is, setting by setting: (dose: 100.0 mg/kg/injection, schedule: Q01DX009 (ip), vehicle: saline sonified) 95 % of control; (dose: 200.0 mg/kg/injection, schedule: Q01DX009 (ip), vehicle: saline sonified) 101 % of control; (dose: 400.0 mg/kg/injection, schedule: Q01DX009 (ip), vehicle: saline sonified) 104 % of control.

In the case of `CCCCc1ccc2nc(NC(=O)OC)[nH]c2c1`, the T/C was 99 % of control (dose: 50.0 mg/kg/injection, schedule: Q01DX009 (oral), vehicle: saline with Tween-80); 109 % of control (dose: 100.0 mg/kg/injection, schedule: Q01DX009 (oral), vehicle: saline with Tween-80); 105 % of control (dose: 100.0 mg/kg/injection, schedule: Q04DX003 (oral), vehicle: saline with Tween-80); 108 % of control (dose: 200.0 mg/kg/injection, schedule: Q01DX009 (oral), vehicle: saline with Tween-80); 172 % of control under setting [4]; 105 % of control (dose: 200.0 mg/kg/injection, schedule: Q04DX003 (oral), vehicle: saline with Tween-80). In addition, the T/C (dose: 300.0 mg/kg/injection, schedule: Q04DX003 (ip), vehicle: saline) was 160 % of control; the T/C under setting [12] is 107 % of control; the T/C (dose: 400.0 mg/kg/injection, schedule: Q04DX003 (oral), vehicle: saline with Tween-80) was 114 % of control.

For `O=C1Cc2cccc3cccc1c23`, the T/C was 102 % of control (dose: 100.0 mg/kg/injection, schedule: Q04DX003 (ip), vehicle: saline with Tween-80); 106 % of control (dose: 200.0 mg/kg/injection, schedule: Q04DX003 (ip), vehicle: saline with Tween-80); 104 % of control under setting [12].
